Each structure is given as a SMILES string. Where a SMILES comes first, the peptide text is derived from it. Bridges are numbered along the chain shown (N, C = ends). [ ]: non-standard residue; d: D form. The star is where a group is joined. ξ: configuration not given here. Phe(4-COOH) = N[C@@H](Cc1ccc(C(=O)O)cc1)C(=O)O; Bip = N[C@@H](Cc1ccc(-c2ccccc2)cc1)C(=O)O; Phe(3-Me) = Cc1cccc(C[C@H](N)C(=O)O)c1; Val(3-OH) = CC(C)(O)[C@H](N)C(=O)O; Cha = N[C@@H](CC1CCCCC1)C(=O)O; Cit = NC(=O)NCCC[C@H](N)C(=O)O; Ile(3ξ) = CCC(C)[C@H](N)C(=O)O; Thr(3ξ) = CC(O)[C@H](N)C(=O)O; Carboxymethyl = O=C(O)C*; NMeA = CN[C@@H](C)C(=O)O; Aun = NCCCCCCCCCCC(=O)O; Dab = NCC[C@H](N)C(=O)O; AEEA = NCCOCCOCC(=O)O

T1 sequence (Q15116 25-288): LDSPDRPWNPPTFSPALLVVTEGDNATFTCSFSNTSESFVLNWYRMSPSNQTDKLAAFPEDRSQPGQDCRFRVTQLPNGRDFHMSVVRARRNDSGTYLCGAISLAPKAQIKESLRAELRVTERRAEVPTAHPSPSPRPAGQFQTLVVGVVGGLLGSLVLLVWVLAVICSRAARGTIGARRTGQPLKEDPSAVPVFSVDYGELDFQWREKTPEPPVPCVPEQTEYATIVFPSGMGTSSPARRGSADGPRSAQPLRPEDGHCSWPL

The assay addresses T1, PD-1/PD-L1 interaction (PE-labeled human PD-L1-Ig binding to Jurkat cell line over-expressing human PD-1) (Homo sapiens, UniProt Q15116).
T1 construct: expressed in transfected cells; host or cells: Jurkat
Kind of assay: Jurkat-PD-1 Cell Binding High-Content Screening Assay (CBA). As to conditions: PE-labeled PD-L1-Ig 20 nM final, Jurkat-hPD-1 cells; read-out: Jurkat HPD1 PDL1 IC50. An outline of the steps:
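Read-out: high-content imaging of cell-bound PE fluorescence, with Hoechst 33342 nuclear counterstain after paraformaldehyde fixation. Before labeled ligand (20 nM final, 1 h) was added, compound sat on the cells for 2 h at 37 °C in DMEM/10% FCS.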
Consider `CC(C)C[C@@H]1NC(=O)[C@H](Cc2c[nH]c3ccccc23)NC(=O)[C@H](CC(=O)O)NC(=O)[C@H](Cc2ccc(OCC(=O)O)cc2)NC(=O)[C@H](Cc2ccc(OCC(=O)O)cc2)NC(=O)CSC[C@@H](C(=O)N[C@@H](CCN)C(=O)NCCOCCOCC(=O)NCCCCCCCCCCC(=O)O)NC(=O)[C@H](CCC(=O)O)NC(=O)[C@H](C(C)(C)O)NC(=O)[C@H](CC2CCCCC2)NC(=O)[C@H](CCN)NC(=O)[C@@H](CC(C)C)NC(=O)[C@H](C)N(C)C(=O)[C@H](CCC(N)=O)NC(=O)[C@H](Cc2ccc(-c3ccccc3)cc2)NC1=O` [Example 2516] ({CH2CO}-Y(Carboxymethyl)Y(Carboxymethyl)DWL[Bip]Q[NMeA][dL][Dab][Cha][Val(3-OH)]EC[Dab][AEEA][Aun]-OH; thioether N-14), for which the IC50 came out at 20.7 nM.

`CC(C)C[C@@H]1NC(=O)[C@H](Cc2c[nH]c3ccccc23)NC(=O)[C@H](CC(=O)O)NC(=O)[C@H](Cc2ccc(OCC(=O)O)cc2)NC(=O)[C@H](Cc2ccc(OCC(=O)O)cc2)NC(=O)CSC[C@@H](C(=O)N[C@@H](CCN)C(=O)NCCOCCOCC(=O)NCCOCCOCC(=O)NCCCCCCCCCCC(=O)O)NC(=O)[C@H](CCC(=O)O)NC(=O)[C@H](C(C)(C)O)NC(=O)[C@H](CC2CCCCC2)NC(=O)[C@H](CCN)NC(=O)[C@@H](CC(C)C)NC(=O)[C@H](C)N(C)C(=O)[C@H](CCC(N)=O)NC(=O)[C@H](Cc2ccc(-c3ccccc3)cc2)NC1=O` [Example 2517] ({CH2CO}-Y(Carboxymethyl)Y(Carboxymethyl)DWL[Bip]Q[NMeA][dL][Dab][Cha][Val(3-OH)]EC[Dab][AEEA][AEEA][Aun]-OH; thioether N-14): the IC50 amounted to 30 nM. The figure for `Cc1cccc(C[C@@H]2NC(=O)[C@H](CC(=O)O)NC(=O)[C@H](Cc3ccc(OCC(=O)O)cc3)NC(=O)[C@H](CCN)NC(=O)CSC[C@@H](C(=O)N[C@@H](CCN)C(=O)NCCOCCOCC(=O)NCCOCCOCC(=O)NCCCCCCCCCCC(=O)O)NC(=O)[C@H](CCC(=O)O)NC(=O)[C@H](C(C)(C)O)NC(=O)[C@H](CC3CCCCC3)NC(=O)[C@H](CCN)NC(=O)[C@@H](CC(C)C)NC(=O)[C@H](C)N(C)C(=O)[C@H](Cc3ccc(C(=O)O)cc3)NC(=O)[C@H](Cc3ccc(-c4ccccc4)cc3)NC(=O)[C@H](Cc3ccc(C(=O)O)cc3)NC2=O)c1` [Example 2518] ({CH2CO}-[Dab]Y(Carboxymethyl)D[Phe(3-Me)][Phe(4-COOH)][Bip][Phe(4-COOH)][NMeA][dL][Dab][Cha][Val(3-OH)]EC[Dab][AEEA][AEEA][Aun]-OH; thioether N-14) is 14.3 nM; for `Cc1cccc(C[C@@H]2NC(=O)[C@H](CC(=O)O)NC(=O)[C@H](Cc3ccc(C(=O)O)cc3)NC(=O)[C@H](CCN)NC(=O)CSC[C@@H](C(=O)N[C@@H](CCN)C(=O)NCCOCCOCC(=O)NCCOCCOCC(=O)NCCCCCCCCCCC(=O)O)NC(=O)[C@H](CCC(=O)O)NC(=O)[C@H](C(C)(C)O)NC(=O)[C@H](CC3CCCCC3)NC(=O)[C@H](CCN)NC(=O)[C@@H](CC(C)C)NC(=O)[C@H](C)N(C)C(=O)[C@H](Cc3ccc(C(=O)O)cc3)NC(=O)[C@H](Cc3ccc(-c4ccccc4)cc3)NC(=O)[C@H](Cc3ccc(C(=O)O)cc3)NC2=O)c1` [Example 2519] ({CH2CO}-[Dab][Phe(4-COOH)]D[Phe(3-Me)][Phe(4-COOH)][Bip][Phe(4-COOH)][NMeA][dL][Dab][Cha][Val(3-OH)]EC[Dab][AEEA][AEEA][Aun]-OH; thioether N-14) it is 13.1 nM; for `Cc1cccc(C[C@@H]2NC(=O)[C@H](CC(=O)O)NC(=O)[C@H](Cc3ccc(OCC(=O)O)cc3)NC(=O)[C@H](CCN)NC(=O)CSC[C@@H](C(=O)N[C@@H](CCN)C(=O)NCCOCCOCC(=O)NCCOCCOCC(=O)NCCCCCCCCCCC(=O)O)NC(=O)[C@H](Cc3cnc[nH]3)NC(=O)[C@H](C(C)(C)O)NC(=O)[C@H](CC3CCCCC3)NC(=O)[C@H](CCN)NC(=O)[C@@H](CC(C)C)NC(=O)[C@H](C)N(C)C(=O)[C@H](Cc3ccc(OCC(=O)O)cc3)NC(=O)[C@H](Cc3ccc(-c4ccccc4)cc3)NC(=O)[C@H](Cc3ccc(OCC(=O)O)cc3)NC2=O)c1` [Example 2520] ({CH2CO}-[Dab]Y(Carboxymethyl)D[Phe(3-Me)]Y(Carboxymethyl)[Bip]Y(Carboxymethyl)[NMeA][dL][Dab][Cha][Val(3-OH)]HC[Dab][AEEA][AEEA][Aun]-OH; thioether N-14) it is 8 nM. The figure for `Cc1cccc(C[C@@H]2NC(=O)[C@H](CC(=O)O)NC(=O)[C@H](Cc3ccc(C(=O)O)cc3)NC(=O)[C@H](CCN)NC(=O)CSC[C@@H](C(=O)N[C@@H](CCN)C(=O)NCCOCCOCC(=O)NCCOCCOCC(=O)NCCCCCCCCCCC(=O)O)NC(=O)[C@H](CCC(=O)O)NC(=O)[C@H](C(C)C)NC(=O)[C@H](CC3CCCCC3)NC(=O)[C@H](CCN)NC(=O)[C@@H](CC(C)C)NC(=O)[C@H](C)N(C)C(=O)[C@H](Cc3ccc(C(=O)O)cc3)NC(=O)[C@H](Cc3ccc(-c4ccccc4)cc3)NC(=O)[C@H](Cc3ccc(C(=O)O)cc3)NC2=O)c1` [Example 2521] ({CH2CO}-[Dab][Phe(4-COOH)]D[Phe(3-Me)][Phe(4-COOH)][Bip][Phe(4-COOH)][NMeA][dL][Dab][Cha]VEC[Dab][AEEA][AEEA][Aun]-OH; thioether N-14) is 13.4 nM; for `CCC(C)[C@@H]1NC(=O)[C@H](Cc2ccc(-c3ccccc3)cc2)NC(=O)[C@H](C(C)C)NC(=O)[C@H](Cc2c[nH]c3ccccc23)NC(=O)[C@H](CC(=O)O)NC(=O)[C@H](Cc2ccc(C(=O)O)cc2)NC(=O)[C@H](Cc2ccc(OCC(=O)O)cc2)NC(=O)CSC[C@@H](C(=O)N[C@@H](CCN)C(=O)NCCOCCOCC(=O)NCCCCCCCCCCC(=O)O)NC(=O)[C@H](C(C)O)NC(=O)[C@H](C(C)(C)O)NC(=O)[C@H](CC2CCCCC2)NC(=O)[C@H](Cc2cnc[nH]2)NC(=O)[C@@H](CC(C)C)NC(=O)[C@H](C)N(C)C1=O` (stereo partly drawn) [Example 2522] ({CH2CO}-Y(Carboxymethyl)[Phe(4-COOH)]DWV[Bip][Ile(3ξ)][NMeA][dL]H[Cha][Val(3-OH)][Thr(3ξ)]C[Dab][AEEA][Aun]-OH; thioether N-14) it is 25.7 nM. For `CCC(C)[C@@H]1NC(=O)[C@H](Cc2ccc(-c3ccccc3)cc2)NC(=O)[C@H](C(C)C)NC(=O)[C@H](Cc2c[nH]c3ccccc23)NC(=O)[C@H](CC(=O)O)NC(=O)[C@H](Cc2ccc(C(=O)O)cc2)NC(=O)[C@H](Cc2ccc(OCC(=O)O)cc2)NC(=O)CSC[C@@H](C(=O)N[C@@H](CCN)C(=O)NCCOCCOCC(=O)NCCCCCCCCCCC(=O)O)NC(=O)[C@H](CCCNC(N)=O)NC(=O)[C@H](C(C)(C)O)NC(=O)[C@H](CC2CCCCC2)NC(=O)[C@H](Cc2cnc[nH]2)NC(=O)[C@@H](CC(C)C)NC(=O)[C@H](C)N(C)C1=O` (stereo partly drawn) [Example 2523] ({CH2CO}-Y(Carboxymethyl)[Phe(4-COOH)]DWV[Bip][Ile(3ξ)][NMeA][dL]H[Cha][Val(3-OH)][Cit]C[Dab][AEEA][Aun]-OH; thioether N-14) the value was 7.1 nM.

The IC50 is the concentration needed to halve the response being measured.

The values are drawn from patent US20260070945A1, “MACROCYCLIC IMMUNOMODULATORS” (Bristol-Myers Squibb Company, priority 2022, published 2026).
